Results: ChEMBL document CHEMBL5241075, “Advancement of chimeric hybrid drugs to cure malaria infection: An overview with special emphasis on endoperoxide pharmacophores” (Eur J Med Chem, 2021)
In brackets after ≈: the same amount, converted by molar mass. Activity calls are given as the source filed them. No cut-off for these calls is given here.

Columns and labels:
Plasmodium falciparum [1] = experiment: Antiplasmodial activity against chloroquine resistant Plasmodium falciparum; format: functional, organism-based
[2] = Stability of compound at pH 2 assessed as half life; format: physicochemical; details: buffer
Plasmodium falciparum [3] = experiment: Antiplasmodial activity against Plasmodium falciparum FcM29; format: functional, organism-based
Plasmodium falciparum [4] = experiment: Antimalarial activity against chloroquine resistant Plasmodium falciparum FcB1; format: functional, organism-based
Plasmodium falciparum [5] = experiment: Antiplasmodial activity against Plasmodium falciparum; format: functional, organism-based
Plasmodium falciparum [6] = experiment: Antiplasmodial activity against Plasmodium falciparum DD2; format: functional, organism-based
Plasmodium falciparum [7] = experiment: Antiplasmodial activity against Plasmodium falciparum NF54; format: functional, organism-based
Plasmodium falciparum [8] = experiment: Antiplasmodial activity against Plasmodium falciparum Nigerian; format: functional, organism-based
Plasmodium yoelii = experiment: Antimalarial activity against Plasmodium yoelii infected in swiss mouse assessed as reduction in parasitemia at 96 mg/kg, po relative to control; format: functional; set-up: scale not given: the % may be the effect or the level left
Plasmodium falciparum [9] = experiment: Antiplasmodial activity against Plasmodium falciparum K1; format: functional, organism-based; details: Plasmodium falciparum, K1
Plasmodium falciparum [10] = experiment: Resistance index, ratio of IC50 for antiplasmodial activity against Plasmodium falciparum K1 to IC50 for antiplasmodial activity against Plasmodium falciparum D10; format: functional
Plasmodium falciparum [11] = experiment: Antiplasmodial activity against Plasmodium falciparum D10; format: functional, organism-based; details: Plasmodium falciparum, D10
Plasmodium falciparum [12] = experiment: Antiplasmodial activity against Plasmodium falciparum 3D7; format: functional, organism-based
Plasmodium falciparum [13] = experiment: Antiplasmodial activity against Plasmodium falciparum gametocytes by [3H]hypoxanthine incorporation assay; format: functional, organism-based
Plasmodium falciparum [14] = experiment: Antiplasmodial activity against Plasmodium falciparum TM91C235; format: functional, organism-based
Plasmodium falciparum [15] = experiment: Antiplasmodial activity against Plasmodium falciparum gametocytes assessed as inhibition of gametocyte activation by [3H]hypoxanthine incorporation assay; format: functional, organism-based
Plasmodium falciparum [16] = experiment: Antiplasmodial activity against Plasmodium falciparum W2; format: functional, organism-based
Caco-2 = experiment: Cytotoxicity against human Caco-2 cells assessed as reduction in cell viability; format: functional
Plasmodium berghei [17] = experiment: Antimalarial activity against liver stage Plasmodium berghei; format: functional, organism-based
Plasmodium berghei [18] = experiment: Antimalarial activity against Plasmodium berghei infected in mouse assessed as reduction in parasitemia; format: functional; details: Plasmodium berghei
Plasmodium berghei [19] = experiment: Antimalarial activity against Plasmodium berghei KBG 173 infected in ICR mouse assessed as survival time at 20 mg/kg/day, po qd administered 3 to 5 days post infection; format: functional; details: time 3-5 day
Plasmodium berghei [20] = experiment: Antimalarial activity against Plasmodium berghei KBG 173 infected in ICR mouse assessed as animal survival at 20 mg/kg/day, po qd administered 3 to 5 days post infection; format: functional, organism-based; details: time 3-5 day
Plasmodium berghei [21] = experiment: Antimalarial activity against Plasmodium berghei KBG 173 infected in ICR mouse assessed as survival time at 320 mg/kg/day, po qd administered 3 to 5 days post infection; format: functional; details: time 3-5 day
Plasmodium berghei [22] = experiment: Antimalarial activity against Plasmodium berghei KBG 173 infected in ICR mouse assessed as survival time at 80 mg/kg/day, po qd administered 3 to 5 days post infection; format: functional; details: time 3-5 day
Plasmodium berghei [23] = experiment: Antimalarial activity against Plasmodium berghei KBG 173 infected in ICR mouse assessed as animal survival at 80 mg/kg/day, po qd administered 3 to 5 days post infection; format: functional, organism-based; details: time 3-5 day
Plasmodium berghei [24] = experiment: Antimalarial activity against Plasmodium berghei KBG 173 infected in ICR mouse assessed as animal survival at 320 mg/kg/day, po qd administered 3 to 5 days post infection; format: functional, organism-based; details: time 3-5 day
[25] = read-out: ED50 (the source's name)

SMILES: COC1(C(F)(F)F)O[C@@H]2O[C@]3(C)CC[C@H]4[C@H](C)CC[C@@H]([C@H]1C)[C@@]24OO3 (stereo partly specified)
- IC50 (Plasmodium falciparum [1]): 0.0008 µM
- half-life [2]: 27.5 days

SMILES: CCOC1(C(F)(F)F)O[C@@H]2O[C@]3(C)CC[C@H]4[C@H](C)CC[C@@H]([C@H]1C)[C@@]24OO3 (stereo partly specified)
- IC50 (Plasmodium falciparum [1]): 0.0033 µM
- half-life [2]: 20.8 days

SMILES: C[C@@H]1CC[C@@H]2[C@]34OO[C@@](C)(CC[C@@H]13)O[C@H]4OC(Nc1ncccn1)[C@@]2(C)Br (stereo partly specified)
- IC50 (Plasmodium falciparum [1]): 0.16 ng/mL

SMILES: CC(C)C1=C[C@H]2OC3(CCC(NCCNc4ccnc5cc(Cl)ccc45)CC3)OO[C@@]2(C)CC1 (stereo partly specified)
- IC50 (Plasmodium falciparum [3]): 0.021 µM
- IC50 (Plasmodium falciparum [4]): 0.006 µM
- IC50 (Plasmodium falciparum [5]): 0.009 µM

SMILES: COc1ccc2nc3cc(Cl)ccc3c(NCCN3CCNCC3)c2c1
- IC50 (Plasmodium falciparum [6]): 0.142 µM
- IC50 (Plasmodium falciparum [7]): 0.0073 µM

SMILES: Clc1cc(NCCCNC2CCC3(CC2)OO[C@@]2(c4ccccc4)CC(c4ccccc4)=C[C@H]2O3)c2ncccc2c1 (mixture of isomers)
- IC50 (Plasmodium falciparum [3]): 0.041 µM
- IC50 (Plasmodium falciparum [4]): 0.041 µM
- IC50 (Plasmodium falciparum [8]): 0.041 µM

SMILES: COc1cc(NC(C)CCCNC2CCC3(CC2)OO[C@@]2(C)CCC(C(C)C)=C[C@H]2O3)c2ncccc2c1 (stereo partly specified)
- IC50 (Plasmodium falciparum [3]): 0.108 µM
- IC50 (Plasmodium falciparum [4]): 0.108 µM
- IC50 (Plasmodium falciparum [8]): 0.108 µM

SMILES: Clc1cc(NCCCCNC2CCC3(CC2)OO[C@@]2(c4ccccc4)CC(c4ccccc4)=C[C@H]2O3)c2ncccc2c1 (stereo partly specified)
- IC50 (Plasmodium falciparum [3]): 0.041 µM
- IC50 (Plasmodium falciparum [4]): 0.041 µM
- IC50 (Plasmodium falciparum [8]): 0.041 µM

SMILES: C=C(c1ccccc1)C1COC2(CCC(NCCCNc3ccnc4cc(Cl)ccc34)CC2)OO1 (stereo unspecified)
- Activity (Plasmodium yoelii): 89%

SMILES: C[C@H]1[C@@H](OCc2ccc(C(=O)O)cc2)O[C@@H]2O[C@@]3(C)CC[C@H]4[C@H](C)CC[C@@H]1[C@@]24OO3
- IC50 (Plasmodium falciparum [9]): 0.006 µM
- EC50 (Plasmodium falciparum [9]; [25]): 1.4 ng/mL (≈ 3.35 nM)
- Ratio IC50 (Plasmodium falciparum [10]): 0.75
- IC50 (Plasmodium falciparum [11]): 0.006 µM
- EC50 (Plasmodium falciparum [12]; [25]): 4 ng/mL

SMILES: O[C@@H](c1cc(C(F)(F)F)nc2c(C(F)(F)F)cccc12)[C@H]1CCCCN1 [(S,R)-MEFLOQUINE]
- IC50 (Plasmodium falciparum [13]): 16500 µM
- IC50 (Plasmodium falciparum [14]): 0.13 µM
- IC90 (Plasmodium falciparum [14]): 0.264 µM
- IC50 (Plasmodium falciparum [15]): 5600 µM
- IC90 (Plasmodium falciparum [16]): 0.64 µM

SMILES: COc1cc(NC(C)CCCNC(=O)C2CCC3(CC2)OOC2(OO3)C3CC4CC(C3)CC2C4)c2nccc(Cl)c2c1 (stereo unspecified)
- CC50 (Caco-2): > 50000 µM
- EC50 (Plasmodium falciparum [16]): 0.075 µM
- EC50 (Plasmodium berghei [17]): 2.81 µM

SMILES: C[C@H]1[C@@H](O)O[C@@H]2C[C@]3(C)CC[C@H]4[C@H](C)CC[C@@H]1[C@@]24OO3
- IC50 (Plasmodium falciparum [9]): 0.003 µM
- Ratio IC50 (Plasmodium falciparum [10]): 0.75
- IC50 (Plasmodium falciparum [11]): 0.004 µM
- IC50 (Plasmodium falciparum [7]): < 0.007 µM
- EC50 (Plasmodium falciparum [12]; read-out: EC50): 0.0024 µM

SMILES: C[C@@H]1CC[C@H]2[C@@H](C)C(CCN3CCN(c4ccc(C(F)(F)F)cc4)CC3)O[C@@H]3O[C@]4(C)CC[C@@H]1[C@]32OO4 (stereo partly specified)
- IC50 (Plasmodium falciparum [9]): 0.00619 µM
- ED50 (Plasmodium berghei [18]): 6 mg/kg

SMILES: Clc1ccc2c(NCCNCC3CCC4(CC3)OOC3(CCCCC3)OO4)ccnc2c1
- Time (Plasmodium berghei [19]): 15.8 days
- Activity (Plasmodium berghei [20]): inactive
- Time (Plasmodium berghei [21]): >31 days
- Time (Plasmodium berghei [22]): 26.4 days
- Activity (Plasmodium berghei [23]): Active
- Activity (Plasmodium berghei [24]): Active

SMILES: C[C@@H]1CC[C@H]2[C@@H](C)C(Oc3ccccc3)O[C@@H]3O[C@]4(C)CC[C@@H]1[C@]32OO4 (stereo partly specified)
- IC50 (Plasmodium falciparum [1]): 0.0053 µM

SMILES: COc1ccc2nc3cc(Cl)ccc3c(NCCNCCO[C@H]3O[C@@H]4O[C@]5(C)CC[C@H]6[C@H](C)CC[C@@H]([C@H]3C)[C@@]46OO5)c2c1
- IC50 (Plasmodium falciparum [6]): 0.0353 µM
- IC50 (Plasmodium falciparum [7]): 0.0026 µM

SMILES: C[C@@H]1CC[C@H]2[C@@H](C)C(O)(C(F)(F)F)O[C@@H]3O[C@]4(C)CC[C@@H]1[C@]32OO4 (stereo partly specified)
- IC50 (Plasmodium falciparum [1]): 0.0094 µM
- half-life [2]: 31.7 days
